Values belong to the compound of their own block, whether it stands above or below them. Peptide text beside a SMILES is read from it.
Tests used:
[1] = biological target: GLP-1R (on GLP-1R/CHO cells, DiscoverX 95-0062C2) (UniProt P43220); experiment: cell-based or functional assay
[2] = biological target: GLP-1R (Homo sapiens, UniProt P43220); experiment: GLP-1 activation: cell-based cAMP assay in GLP-1R/CHO cells; conditions: Example 5, relative to Exendin-4
[3] = biological target: T1, GLP-2 (Homo sapiens, UniProt O95838); experiment: GLP-2 activity, cell-based cAMP assay (same method as Example 2)
T1 sequence (O95838 1-553): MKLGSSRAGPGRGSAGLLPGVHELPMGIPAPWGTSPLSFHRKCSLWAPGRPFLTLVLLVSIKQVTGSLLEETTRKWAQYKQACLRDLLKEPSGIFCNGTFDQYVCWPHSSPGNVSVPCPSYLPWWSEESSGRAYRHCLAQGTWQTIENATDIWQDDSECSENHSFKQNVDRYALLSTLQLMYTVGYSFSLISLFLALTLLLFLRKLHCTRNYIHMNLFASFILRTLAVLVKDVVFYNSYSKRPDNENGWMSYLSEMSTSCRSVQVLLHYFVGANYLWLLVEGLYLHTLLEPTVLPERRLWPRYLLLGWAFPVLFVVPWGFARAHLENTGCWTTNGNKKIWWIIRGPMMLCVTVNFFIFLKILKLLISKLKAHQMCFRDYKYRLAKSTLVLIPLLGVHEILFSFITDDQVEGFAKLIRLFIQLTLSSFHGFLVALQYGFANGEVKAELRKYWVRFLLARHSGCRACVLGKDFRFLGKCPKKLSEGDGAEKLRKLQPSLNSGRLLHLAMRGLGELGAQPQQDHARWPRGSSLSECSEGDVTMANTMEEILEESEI

[4] = Mouse PK after single subcutaneous administration, LC-MS/MS of plasma; format: in vivo, mice; conditions: male, C57BL/6N, mouse, in vivo, sc
Description: Each of the experimental groups and the control was subcutaneously administered once to the dorsal area of a total of 12 mice using a 1 mL syringe equipped with a 26-gauge needle at a dose of 0.2 mg/5 mL/kg. After drug administration, approximately 0.04 to 0.05 mL of blood was collected per individual at the time scheduled for the orbital vein (4 mice were alternately sampled), and the blood collection times were 1, 2, 4, 8, 24 ,32 ,48, 56, 72, 96, and 120 hours. All plasma samples were analyzed using a self-developed LC-MS/MS assay. Pharmacokinetic analysis of blood drugs was performed using non-compartmental analysis, and analysis of pharmacokinetic parameters was performed using Phoenix WinNolin 64 (Version. 8.3.5 340).

[5] = in vivo; cited from earlier work

Chain of GLP-1R (P43220 24-463): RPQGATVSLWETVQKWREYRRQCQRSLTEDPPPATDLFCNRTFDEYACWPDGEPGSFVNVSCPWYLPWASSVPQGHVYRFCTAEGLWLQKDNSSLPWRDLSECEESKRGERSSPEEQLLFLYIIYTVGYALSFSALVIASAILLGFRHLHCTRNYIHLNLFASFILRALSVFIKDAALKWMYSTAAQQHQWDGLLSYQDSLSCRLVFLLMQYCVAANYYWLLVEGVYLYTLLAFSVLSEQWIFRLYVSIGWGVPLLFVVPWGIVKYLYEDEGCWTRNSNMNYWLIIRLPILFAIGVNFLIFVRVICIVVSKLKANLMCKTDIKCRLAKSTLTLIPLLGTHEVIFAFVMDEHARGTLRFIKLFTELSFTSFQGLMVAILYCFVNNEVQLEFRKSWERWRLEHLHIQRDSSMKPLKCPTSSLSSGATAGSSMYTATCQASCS
Chain of GLP-1R (on GLP-1R/CHO cells, DiscoverX 95-0062C2) (P43220 24-463 limits assumed): as the sequence (P43220 24-463) above

GLP-1 activity, Compared to GLP-1 (Exendin-4) [1]: 24.5%
Compound: Semaglutide (peptide)

GLP-1 activity Compared to GLP-1 (Exendin-4) [2]: 1.5%
EC50 ([3]; Example 5): > 10 µM
GLP-2 activity Compared to GLP-2 ([3]; Example 5, relative to GLP-2): ~ 0.02%
Tmax [4]: 12 h
half-life [4]: 15.9 h
Compound: CC[C@H](C)[C@H](NC(=O)[C@H](Cc1ccccc1)NC(=O)[C@H](CC(=O)O)NC(=O)[C@H](CCCNC(=N)N)NC(=O)[C@H](C)NC(=O)[C@H](C)NC(=O)[C@H](CC(C)C)NC(=O)[C@H](C)NC(=O)[C@H](CC(=O)O)NC(=O)[C@H](CC(C)C)NC(=O)[C@H](Cc1ccc(O)cc1)NC(=O)[C@@H](NC(=O)[C@H](CO)NC(=O)[C@H](CC(C)C)NC(=O)[C@H](CC(=O)O)NC(=O)[C@H](CO)NC(=O)[C@@H](NC(=O)[C@H](Cc1ccccc1)NC(=O)[C@@H](NC(=O)CNC(=O)[C@H](CCC(=O)O)NC(=O)CNC(=O)[C@@H](N)Cc1c[nH]cn1)[C@@H](C)O)[C@@H](C)O)[C@@H](C)O)C(=O)N[C@@H](CC(N)=O)C(=O)N[C@@H](Cc1c[nH]c2ccccc12)C(=O)N[C@@H](CC(C)C)C(=O)N[C@H](C(=O)N[C@@H](CCC(N)=O)C(=O)N[C@H](C(=O)N[C@@H](CCCCN)C(=O)N[C@H](C(=O)N[C@H](C(=O)N[C@@H](CC(=O)O)C(=O)N[C@@H](CCCCN)C(=O)N[C@@H](CCCCNC(=O)CC[C@H](NC(=O)CCCCCCCCCCCCCCCCCCC(=O)O)C(=O)O)C(=O)O)[C@@H](C)O)[C@@H](C)CC)[C@@H](C)O)[C@@H](C)CC [HU020M2] (HELM PEPTIDE1{H.G.E.G.T.F.T.S.D.L.S.T.Y.L.D.A.L.A.A.R.D.F.I.N.W.L.I.Q.T.K.I.T.D.K.K}|PEPTIDE2{[O=C(O)CCCCCCCCCCCCCCCCCCC(=O)[*:2]].[gGlu]}$PEPTIDE1,PEPTIDE2,35:R3-2:R2$$$V2.0; N-terminus and C-terminus assumed)

Compound: GLP-1
half-life (t1/2) [5]: < 2 min

Reference: patent publication EP4741420A1, “PHARMACEUTICAL COMPOSITION FOR PREVENTING OR TREATING OBESITY COMPRISING GLP ANALOGUE AS ACTIVE INGREDIENT” (priority 2023, dated 2025)
